Experimental data reported in patent publication EP3046573B1, “AMYLIN ANALOGUES” (Zealand Pharma A/S, priority 2013, dated 2015).
pEC50: −log10 of the molar value. Numbered stars: 1 amine (or outer) side, 2 acyl side, 3 side chain; on linkers, the order of the positions; unused ones are H or OH. Bridge positions count the residues as written; N and C are the ends. Square brackets hold non-standard residues; d marks the D form. Peptide text beside a SMILES is read from it. * marks the point of attachment. C20 diacid = O=C(O)CCCCCCCCCCCCCCCCCCC(=O)*; γGlu = O=C(O)[C@H](CCC(=O)[*:2])N[*:1]; NMeI = CC[C@H](C)[C@H](NC)C(=O)O; Sar = CNCC(=O)O

Tests used:
[1] = molecular target: T1, human calcitonin receptor (hCTR2) (Homo sapiens, UniProt P30988); assay: hCTR2 assay: induction of cAMP (AlphaScreen cAMP Assay kit) in COS7 cells expressing hCTR2; assay type: cell-based; details: cAMP induction in COS7 cells expressing hCTR2; average of a minimum of 3 determinations; read-out: hCTR2 EC50
T1 construct: expressed in transfected cells
T1 sequence (P30988 25-474): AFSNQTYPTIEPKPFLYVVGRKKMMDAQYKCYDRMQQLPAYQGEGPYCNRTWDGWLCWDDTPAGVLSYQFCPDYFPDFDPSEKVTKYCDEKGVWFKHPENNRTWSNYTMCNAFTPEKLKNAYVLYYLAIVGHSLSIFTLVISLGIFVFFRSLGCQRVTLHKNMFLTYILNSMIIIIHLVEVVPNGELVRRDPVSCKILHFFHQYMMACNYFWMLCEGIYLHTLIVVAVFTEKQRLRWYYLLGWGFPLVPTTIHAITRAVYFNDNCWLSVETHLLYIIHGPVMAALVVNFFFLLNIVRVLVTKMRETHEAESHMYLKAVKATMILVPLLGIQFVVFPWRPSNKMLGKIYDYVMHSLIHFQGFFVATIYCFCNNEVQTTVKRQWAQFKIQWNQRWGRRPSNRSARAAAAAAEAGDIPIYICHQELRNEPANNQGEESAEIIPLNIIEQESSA
Procedure, shortened: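 Cells were seeded one day ahead, washed, then exposed to rising peptide concentrations for 15 min at 37° C in the presence of 100 µM IBMX. After lysis for 10 min at room temperature, cAMP was quantified by AlphaScreen and EC50 values derived by 4PL fitting.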

[2] = Solubility assessment (turbidity absorbance at 325 nm); assay type: physicochemical; details: stock 2 mg/ml diluted 1:1, ambient temperature (typically 25°C), n=1; for Solubility, Acetate buffer pH 4: 100 mM acetate buffer pH 4.0; for Solubility, Acetate buffer pH 5: 100 mM acetate buffer pH 5.0; for Solubility, Histidine buffer pH 6: 100 mM histidine buffer pH 6.0; for Solubility, Histidine buffer pH 7: 100 mM histidine buffer pH 7.0; for Solubility, Phosphate buffer pH 6: 100 mM phosphate buffer pH 6.0; for Solubility, Phosphate buffer pH 7: 100 mM phosphate buffer pH 7.0; for Solubility, Phosphate buffer pH 7.5: 100 mM phosphate buffer pH7.5
Procedure, shortened: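 Turbidity read as absorbance at 325 nm (also 280 nm), single samples at ambient temperature (typically 25°C); ≤ 0.02 units counts as ≥ 1 mg/ml soluble. Samples made by 1:1 dilution of a 2 mg/ml acidic stock into 100 mM acetate, histidine or phosphate buffers, pH 4.0–7.5.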

In the case of CC[C@H](C)[C@@H](C(=O)N[C@@H](CC(C)C)C(=O)N[C@@H](CO)C(=O)N[C@@H](CO)C(=O)N[C@H](C(=O)N[C@@H](CC(N)=O)C(=O)N[C@H](C(=O)NCC(=O)N[C@@H](CO)C(=O)N[C@@H](CC(N)=O)C(=O)N[C@H](C(=O)N1CCC[C@H]1C(N)=O)[C@@H](C)O)C(C)C)[C@@H](C)O)N(C)C(=O)CN(C)C(=O)[C@H](Cc1ccccc1)NC(=O)[C@H](CC(N)=O)NC(=O)[C@H](CC(N)=O)NC(=O)[C@H](CO)NC(=O)[C@H](CO)NC(=O)[C@H](Cc1c[nH]cn1)NC(=O)[C@H](CCCNC(=N)N)NC(=O)[C@H](CC(C)C)NC(=O)[C@H](Cc1ccccc1)NC(=O)[C@H](CCC(=O)O)NC(=O)[C@H](C)NC(=O)[C@H](CC(C)C)NC(=O)[C@H](CCCNC(=N)N)NC(=O)[C@H](CCC(N)=O)NC(=O)[C@@H](NC(=O)[C@H](C)NC(=O)[C@@H]1CSSC[C@H](NC(=O)[C@H](CCCNC(=N)N)NC(=O)CC[C@H](NC(=O)CCCCCCCCCCCCCCCCCCC(=O)O)C(=O)O)C(=O)N[C@@H](CC(N)=O)C(=O)N[C@@H]([C@@H](C)O)C(=O)N[C@@H](C)C(=O)N[C@@H]([C@@H](C)O)C(=O)N1)[C@@H](C)O [Compound 22, [19CD]-isoGlu-RC()NTATC()ATQRLAEFLRHSSNNF-Gly(Me)-Ile(Me)-LSSTNVGSNTP-NH2] ({C20 diacid-γGlu}-RCNTATCATQRLAEFLRHSSNNF[Sar][NMeI]LSSTNVGSNTP-NH2; disulfide 2-7), the pEC50 [1] was 9.51, the “Solubility, Acetate buffer pH 4” value [2] was “SS (SS indicates solubility ≥ 1mg/ml)” and the “Solubility, Acetate buffer pH 5” value [2] was “SS (SS indicates solubility ≥ 1mg/ml)”. For the same compound, the “Solubility, Histidine buffer pH 6” value [2] was “SS (SS indicates solubility ≥ 1mg/ml)”, the “Solubility, Histidine buffer pH 7” value [2] was “SS (SS indicates solubility ≥ 1mg/ml)” and the “Solubility, Phosphate buffer pH 6” value [2] was “SS (SS indicates solubility ≥ 1mg/ml)”. The “Solubility, Phosphate buffer pH 7” value [2] was “SS (SS indicates solubility ≥ 1mg/ml)” and the “Solubility, Phosphate buffer pH 7.5” value [2] was “SS (SS indicates solubility ≥ 1mg/ml)”.

For CC[C@H](C)[C@@H](C(=O)N[C@@H](CC(C)C)C(=O)N[C@@H](CO)C(=O)N[C@@H](CO)C(=O)N[C@H](C(=O)N[C@@H](CC(=O)O)C(=O)N[C@H](C(=O)NCC(=O)N[C@@H](CO)C(=O)N[C@@H](CC(=O)O)C(=O)N[C@H](C(=O)N1CCC[C@H]1C(N)=O)[C@@H](C)O)C(C)C)[C@@H](C)O)N(C)C(=O)[C@H](C)NC(=O)CN(C)C(=O)[C@H](Cc1ccccc1)NC(=O)[C@H](CO)NC(=O)[C@H](CO)NC(=O)[C@H](CCCNC(=N)N)NC(=O)[C@H](Cc1c[nH]cn1)NC(=O)[C@H](CC(C)C)NC(=O)[C@H](Cc1ccccc1)NC(=O)[C@H](CCC(=O)O)NC(=O)[C@H](C)NC(=O)[C@H](CC(C)C)NC(=O)[C@H](CCCNC(=N)N)NC(=O)[C@H](CCC(N)=O)NC(=O)[C@@H](NC(=O)[C@H](C)NC(=O)[C@@H]1CSSC[C@H](NC(=O)[C@H](CCCNC(=N)N)NC(=O)CC[C@H](NC(=O)CCCCCCCCCCCCCCCCCCC(=O)O)C(=O)O)C(=O)N[C@@H](CC(N)=O)C(=O)N[C@@H]([C@@H](C)O)C(=O)N[C@@H](C)C(=O)N[C@@H]([C@@H](C)O)C(=O)N1)[C@@H](C)O [Compound 81, [19CD]-isoGlu-RC()NTATC()ATQRLAEFLHRSSF-Gly(Me)-A-Ile(Me)-LSSTDVGSDTP-NH2] ({C20 diacid-γGlu}-RCNTATCATQRLAEFLHRSSF[Sar]A[NMeI]LSSTDVGSDTP-NH2; disulfide 2-7), the pEC50 [1] was 10.24, the “Solubility, Acetate buffer pH 4” value [2] was “SS (SS indicates solubility ≥ 1mg/ml)” and the “Solubility, Acetate buffer pH 5” value [2] was “SS (SS indicates solubility ≥ 1mg/ml)”. For the same compound, the “Solubility, Histidine buffer pH 6” value [2] was “SS (SS indicates solubility ≥ 1mg/ml)”, the “Solubility, Histidine buffer pH 7” value [2] was “SS (SS indicates solubility ≥ 1mg/ml)” and the “Solubility, Phosphate buffer pH 6” value [2] was “SS (SS indicates solubility ≥ 1mg/ml)”. For the same compound, the “Solubility, Phosphate buffer pH 7” value [2] was “SS (SS indicates solubility ≥ 1mg/ml)” and the “Solubility, Phosphate buffer pH 7.5” value [2] was “SS (SS indicates solubility ≥ 1mg/ml)”.

With CC[C@H](C)[C@@H](C(=O)N[C@@H](CC(C)C)C(=O)N[C@@H](CO)C(=O)N[C@@H](CO)C(=O)N[C@H](C(=O)N[C@@H](CC(N)=O)C(=O)N[C@H](C(=O)NCC(=O)N[C@@H](CO)C(=O)N[C@@H](CC(N)=O)C(=O)N[C@H](C(=O)N1CCC[C@H]1C(N)=O)[C@@H](C)O)C(C)C)[C@@H](C)O)N(C)C(=O)CN(C)C(=O)[C@H](Cc1ccccc1)NC(=O)[C@H](CC(N)=O)NC(=O)[C@H](CC(N)=O)NC(=O)[C@H](CO)NC(=O)[C@H](Cc1c[nH]cn1)NC(=O)[C@H](Cc1c[nH]cn1)NC(=O)[C@H](CC(C)C)NC(=O)[C@H](Cc1ccccc1)NC(=O)[C@H](CCC(=O)O)NC(=O)[C@H](C)NC(=O)[C@H](CC(C)C)NC(=O)[C@H](CCCNC(=N)N)NC(=O)[C@H](CCC(N)=O)NC(=O)[C@@H](NC(=O)[C@H](C)NC(=O)[C@@H]1CSSC[C@H](NC(=O)[C@H](CCCNC(=N)N)NC(=O)CC[C@H](NC(=O)CCCCCCCCCCCCCCCCCCC(=O)O)C(=O)O)C(=O)N[C@@H](CC(N)=O)C(=O)N[C@@H]([C@@H](C)O)C(=O)N[C@@H](C)C(=O)N[C@@H]([C@@H](C)O)C(=O)N1)[C@@H](C)O [Compound 46, [19CD]-isoGlu-RC()NTATC()ATQRLAEFLHHSNNF-Gly(Me)-Ile(Me)-LSSTNVGSNTP-NH2] ({C20 diacid-γGlu}-RCNTATCATQRLAEFLHHSNNF[Sar][NMeI]LSSTNVGSNTP-NH2; disulfide 2-7) the pEC50 [1] was 9.82, the “Solubility, Acetate buffer pH 4” value [2] was “II (II indicates solubility ≤ 1 mg/ml)” and the “Solubility, Acetate buffer pH 5” value [2] was “II (II indicates solubility ≤ 1 mg/ml)”. For the same compound, the “Solubility, Histidine buffer pH 6” value [2] was “II (II indicates solubility ≤ 1 mg/ml)”, the “Solubility, Histidine buffer pH 7” value [2] was “II (II indicates solubility ≤ 1 mg/ml)” and the “Solubility, Phosphate buffer pH 6” value [2] was “II (II indicates solubility ≤ 1 mg/ml)”. The “Solubility, Phosphate buffer pH 7” value [2] was “II (II indicates solubility ≤ 1 mg/ml)” and the “Solubility, Phosphate buffer pH 7.5” value [2] was “II (II indicates solubility ≤ 1 mg/ml)”.

With CC[C@H](C)[C@@H](C(=O)N[C@@H](CO)C(=O)N[C@@H](CO)C(=O)N[C@H](C(=O)N[C@@H](CC(N)=O)C(=O)N[C@H](C(=O)NCC(=O)N[C@@H](CO)C(=O)N[C@@H](CC(N)=O)C(=O)N[C@H](C(=O)N1CCC[C@H]1C(N)=O)[C@@H](C)O)C(C)C)[C@@H](C)O)N(C)C(=O)CN(C)C(=O)[C@H](Cc1ccccc1)NC(=O)[C@H](CC(N)=O)NC(=O)[C@H](CC(N)=O)NC(=O)[C@H](CO)NC(=O)[C@H](CO)NC(=O)[C@H](Cc1c[nH]cn1)NC(=O)[C@H](Cc1c[nH]cn1)NC(=O)[C@H](CC(C)C)NC(=O)[C@H](Cc1ccccc1)NC(=O)[C@H](CCC(=O)O)NC(=O)[C@H](C)NC(=O)[C@H](CC(C)C)NC(=O)[C@H](CCCNC(=N)N)NC(=O)[C@H](CCC(N)=O)NC(=O)[C@@H](NC(=O)[C@H](C)NC(=O)[C@@H]1CSSC[C@H](NC(=O)[C@H](CCCNC(=N)N)NC(=O)CC[C@H](NC(=O)CCCCCCCCCCCCCCCCCCC(=O)O)C(=O)O)C(=O)N[C@@H](CC(N)=O)C(=O)N[C@@H]([C@@H](C)O)C(=O)N[C@@H](C)C(=O)N[C@@H]([C@@H](C)O)C(=O)N1)[C@@H](C)O [Compound 55, [19CD]-isoGlu-RC()NTATC()ATQRLAEFLHHSSNNF-Gly(Me)-Ile(Me)-SSTNVGSNTP-NH2] ({C20 diacid-γGlu}-RCNTATCATQRLAEFLHHSSNNF[Sar][NMeI]SSTNVGSNTP-NH2; disulfide 2-7) the pEC50 [1] was 10.12, the “Solubility, Acetate buffer pH 4” value [2] was “II (II indicates solubility ≤ 1 mg/ml)” and the “Solubility, Acetate buffer pH 5” value [2] was “II (II indicates solubility ≤ 1 mg/ml)”. For the same compound, the “Solubility, Histidine buffer pH 6” value [2] was “II (II indicates solubility ≤ 1 mg/ml)”, the “Solubility, Histidine buffer pH 7” value [2] was “II (II indicates solubility ≤ 1 mg/ml)” and the “Solubility, Phosphate buffer pH 6” value [2] was “II (II indicates solubility ≤ 1 mg/ml)”. The “Solubility, Phosphate buffer pH 7” value [2] was “II (II indicates solubility ≤ 1 mg/ml)” and the “Solubility, Phosphate buffer pH 7.5” value [2] was “II (II indicates solubility ≤ 1 mg/ml)”.
